Laboratory results published in US5212182A, “Substituted quinolinyl- and naphthalenylbenzamides or benzylamines and related compounds useful as analgesics” (American Home Products Corpooration, priority 1990, dated 1993).

Experiments:
[1] = tested on: bradykinin-induced hyperalgesia (pain threshold) in rats; assay: Bradykinin-induced Hyperalgesia in Rats; assay type: in vivo, rats (female Sprague Dawley); settings: 100 mg/kg p.o.
Description: Protocol for Bradykinin-induced Hyperalgesia in Rats
The purpose of this assay is to evaluate analgesic activity of bradykinin antagonists in an inflammatory pain model in rats.
Animals (female Sprague Dawley rats (Charles River, Kingston, NY) 80-115 gms) are fasted overnight, with water given ad lib, if the compounds are to be administered orally. Ten rats are used per test group and six per normal group.
Test compounds are suspended in 0.5% Tween 80 in distilled water, and are administered orally 1 hour (or i.p. 5 minutes) prior to the injection of bradykinin.
The animals are randomized prior to drug administration in order to make the study blind. Bradykinin is injected, as the phlogistic agent, into the subplantar region of the right hindpaw of the rats, in a 0.01 mg/0.1 mL saline solution. The pain threshold is measured 1 minute later using a modification of the Randall-Selitto method, [Randall, et al., Archives International Pharmacodynamics, VIII N4, p 409-419 (1957)].
Animals are placed in a horizontal position with a hindpaw hanging down on the apparatus. The teflon point is placed on the foot pad and a steady pressure is applied, using a foot pedal. The endpoint is determined when the rat emits a squeak or forcefully attempts to remove its paw from the apparatus. […]
Drug effects are expressed as a percent change in pain threshold from bradykinin control values. […]

[2] = tested on: writhing response induced by bradykinin in mice; assay: Bradykinin-induced Writhing in Mice; assay type: in vivo, mice (male CD-1)
Description: Protocol for Bradykinin-induced Writhing in Mice
The purpose of this assay is to determine the ability of test drugs to inhibit the writhing response induced by bradykinin in mice. This test is a primary in vivo screen for bradykinin antagonist analgesics.
Groups of 10 mice each (male CD-1 mice (14-19 g) from Charles River, Kingston, NY, fasted overnight prior to experiment, but having free access to water) are used. Each mouse receives an intraperitoneal injection of 1 mg/kg PGE2 (0.1 mL/10 g body weight) followed 20 minutes later by an i.p. injection of bradykinin 0.5 mg/kg. The number of writhes per mouse is determined for 2 minutes after bradykinin injection. For a primary screen, drugs are administered orally at 20 mg/kg 1 hour prior to the bradykinin.
The percent inhibition of writhing obtained is calculated as follows: [formula]
Several logarithmically spaced doses are tested and the ED50 (dose which inhibits the writhing response by 50%) is determined by regression methods with inverse prediction.
The test results are reported in the TABLE below under the heading BK Induced Writhing in Mice.

[3] = target: T1, BK2 receptor sites in guinea pig ileum (Cavia porcellus, UniProt O70526); assay: Bradykinin Receptor Binding Assay (3H-BK Binding, G. P. Ileum); parameters: species or system guinea pig (Hartley strain); settings: 80 pM 3H-BK
T1 construct: The distal portion of the ileum is removed and placed in ice cold homogenization buffer; from tissue; host or cells: distal ileum of adult male Hartley guinea pigs (animals from Charles River), washed membrane homogenate
T1 sequence (O70526 1-372): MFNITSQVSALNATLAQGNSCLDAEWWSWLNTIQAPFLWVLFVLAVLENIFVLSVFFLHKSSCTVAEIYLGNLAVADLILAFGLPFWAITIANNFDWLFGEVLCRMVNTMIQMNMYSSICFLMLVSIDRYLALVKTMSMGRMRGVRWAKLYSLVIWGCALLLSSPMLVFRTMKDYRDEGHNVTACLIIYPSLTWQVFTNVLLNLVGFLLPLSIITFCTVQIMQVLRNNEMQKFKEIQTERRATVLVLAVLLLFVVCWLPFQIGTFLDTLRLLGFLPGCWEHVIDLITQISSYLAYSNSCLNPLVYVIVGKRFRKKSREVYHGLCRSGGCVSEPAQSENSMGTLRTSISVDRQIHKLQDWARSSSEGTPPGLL
Description: Protocol for Bradykinin Receptor Binding Assay
The purpose of this assay is to identify compounds which compete specifically with tritiated bradykinin (^3 H--BK) for BK2 receptor sites in guinea pig ileum.
The guinea pig (adult male Hartley strain, 350-500 g, Charles River) is euthanized by stunning followed by decapitation. The distal portion of the ileum is removed and placed in ice cold homogenization buffer (25 mM N-[tris(hydroxymethyl)methyl]-2-aminoethanesulfonic acid (TES), 1 mM 1,10-phenanthroline, adjusted to pH 6.8 with NH4 OH). The contents of the ileal lumen are rinsed out with cold homogenization buffer. The tissue is cut into small pieces and homogenized in 20 volumes of homogenization buffer.
The homogenate is filtered through a surgical gauze sponge and centrifuged at 50,000×g for 20 minutes at 4° C. The supernatant fluid is discarded and the homogenization and centrifugation procedure is repeated. After discarding the supernatant fluid, the final pellet is resuspended in 40 volumes of assay buffer (25 mM TES, pH=6.8, 1 mM 1,10-phenanthroline, 1 mM (2RS, 3RS)-1,4-dimercapto-2,3-butanediol (Cleland's reagent), 2 μM captopril, 140 μg/mL bacitracin and 0.1% bovine serum albumin (BSA)). The homogenate is filtered once more through a surgical gauze sponge and kept on ice until use.
The assay is performed using only polypropylene pipet tips and polypropylene test tubes. Each tube receives 100 μL of 800 pM ^3 H--BK, 100 μL of the test compound solution or vehicle (TES assay buffer), and 100 μL of 25 mg/mL tissue homogenate in a total volume of 1 mL. The final concentration of ^3 H--BK is 80 pM. The final tissue concentration is 2.5 mg/mL. Compounds are screened at 100 μM or 10 μM. Nonspecific binding is determined in the presence of 1 μM unlabeled bradykinin. All determinations are made in triplicate. Three 100 μL aliquots of the 800 pM ^3 H--BK working solution are added directly to scintillation vials to determine the total added radioactivity.
The tubes are incubated for 90 minutes at 25° C. while being gently agitated on an orbital shaker. Bound ligand is separated from free ligand, using Whatman GF/B glass fiber filters (pretreated with 0.1% aqueous polyethyleneimine made neutral with HCl). Assay tubes and glass fiber filters are rinsed three times with 3 mL of cold physiological saline.
The filter discs are transferred to 20 mL scintillation vials. Ten mL of aqueous sample LSC cocktail (Aquassure, New England Nuclear) is added to each vial. After capping, the vials are agitated for 5 minutes on an orbital shaker. The samples are counted for ten minutes in a refrigerated liquid scintillation counter.
The following values are obtained:
Bns : Nonspecific binding
Bx : Total binding in the presence of the test compound
C: Control specific binding C=Bt -Bns
D: Specific binding in the presence of the test compound D=Bx -Bns
Percent of Control: D/C×100
Percent Inhibition: (1-D/C)×100
After calculation of Percent of Control for each dilution, the values are analyzed and the IC50 with its 95% confidence limits is determined on a Hewlett Packard 9816 computer using the program "PS-NONLIN" (generalizednon-linear regression with inverse prediction and graphics).
The test results are reported in the TABLE below under the heading 3H--BK Binding, G. P. Ileum.

Row | inhibition at 10 µM [3] [%] | Structure (SMILES) | other results
1 |  | O=C(NC1CCN(Cc2ccccc2)CC1)c1ccc(OCc2ccnc3ccccc23)cc1 [Example 1, N-[1-(Phenylmethyl)-4-piperidinyl]-4-(4-quinolinylmethoxy)benzamide] | increase of BK induced pain threshold in rats [1]: 44.8%; BK Induced Writhing in Mice, % inhibition ([2]; 30 mg/kg i.p.): 40.0%; BK Induced Writhing in Mice, % inhibition ([2]; 300 mg/kg p.o.): 52.0%; IC50 [3]: 9.1 µM; inhibition at 100 µM [3]: 98.8%
2 |  | O=C(NC1CCN(Cc2ccccc2)CC1)c1ccc(OCc2ccc3ccccc3n2)cc1 [Example 2, N-[1-(Phenylmethyl)-4-piperidinyl]-4-(2-quinolinylmethoxy)benzamide] | BK Induced Writhing in Mice, % inhibition ([2]; 30 mg/kg i.p.): 40.0%; BK Induced Writhing in Mice, % inhibition ([2]; 100 mg/kg p.o.): 32.0%; BK Induced Writhing in Mice, % inhibition ([2]; 200 mg/kg p.o.): 22.5%; IC50 [3]: 33.6 µM; inhibition at 100 µM [3]: 93.8%
3 | 15.2 | CCCCN1CCC(NC(=O)c2ccc(OCc3ccnc4ccccc34)cc2)CC1 [Example 3, N-(1-Butyl-4-piperidinyl)-4-(4-quinolinylmethoxy)benzamide] | 
4 | 10.4 | CCCCN1CCC(NC(=O)c2ccc(OCc3ccc4ccccc4n3)cc2)CC1 [Example 4, N-(1-Butyl-4-piperidinyl)-4-(2-quinolinylmethoxy)benzamide] | 
5 | 63.8 | O=C(NC1CCN(Cc2ccccc2)CC1)c1cccc(OCc2ccnc3ccccc23)c1 [Example 5, N-[1-(Phenylmethyl)-4-piperidinyl]-3-(4-quinolinylmethoxy)benzamide] | BK Induced Writhing in Mice, % inhibition ([2]; 30 mg/kg i.p.): 31.0%; BK Induced Writhing in Mice, % inhibition ([2]; 200 mg/kg p.o.): 22.0%; IC50 [3]: 7.3 µM
6 | 17.3 | O=C(NC1CCN(Cc2ccccc2)CC1)c1ccccc1OCc1ccnc2ccccc12 [Example 6, N-[1-(Phenylmethyl)-4-piperidinyl]-2-(4-quinolinylmethoxy)benzamide] | 
7 | 43.2 | O=C(NC1CCN(Cc2ccccc2)CC1)c1cccc(OCc2ccc3ccccc3n2)c1 [Example 7, N-[1-(Phenylmethyl)-4-piperidinyl]-3-(2-quinolinylmethoxy)benzamide] | 
8 | 8.4 | O=C(NC1CCN(Cc2ccccc2)CC1)c1ccccc1OCc1ccc2ccccc2n1 [Example 8, N-[1-(Phenylmethyl)-4-piperidinyl]-2-(2-quinolinylmethoxy)benzamide] | 
9 | 21.4 | CCCCN1CCC(NC(=O)c2cccc(OCc3ccnc4ccccc34)c2)CC1 [Example 9, N-(1-Butyl-4-piperidinyl)-3-(4-quinolinylmethoxy)benzamide] | 
10 | 8.6 | O=C(NC1CCN(Cc2ccccc2)CC1)c1ccc(OCc2cccc3ccccc23)cc1 [Example 10, N-[1-(Phenylmethyl)-4-piperidinyl]-4-(1-naphthalenylmethoxy)benzamide] | 
11 | 11.1 | CCCCN1CCC(NC(=O)c2ccc(OCc3cccc4ccccc34)cc2)CC1 [Example 11, N-(1-Butyl-4-piperidinyl)-4-(1-naphthalenylmethoxy)benzamide] | 
12 | 78.7 | O=C(NC1CCN(Cc2ccccc2)CC1)c1ccc(/C=C/c2ccnc3ccccc23)cc1 [Example 12, (E)-N-[1-(Phenylmethyl)-4-piperidinyl]-4-[2-(4-quinolinyl)ethenyl]benzamide] | BK Induced Writhing in Mice, % inhibition ([2]; 30 mg/kg i.p.): 10.0%
13 | 35.8 | O=C(NC1CCN(Cc2ccccc2)CC1)c1ccc(/C=C\c2ccnc3ccccc23)cc1 [Example 13, (Z)-N-[1-(Phenylmethyl)-4-piperidinyl]-4-[2-(4-quinolinyl)ethenyl]benzamide] | 
14 | 30.2 | O=C(NC1CCN(Cc2ccccc2)CC1)c1ccc(OCc2cc[n+]([O-])c3ccccc23)cc1 [Example 14, N-[1-(Phenylmethyl)-4-piperidinyl]-4-(4-quinolinylmethoxy)benzamide N-Oxide] | 
15 | 30.2 | CCN(CC)C(=O)c1ccc(CN2CCC(NC(=O)c3ccc(OCc4ccnc5ccccc45)cc3)CC2)cc1 [Example 15, N-[1-[[4-[(Diethylamino)carbonyl]phenyl]methyl]-4-piperidinyl]-4-(4-quinolinylmethoxy)benzamide] | 
16 | 27.4 | c1ccc(CN2CCC(NCc3ccc(OCc4ccnc5ccccc45)cc3)CC2)cc1 [Example 16, 1-(Phenylmethyl)-N-[[4-(4-quinolinylmethoxy)phenyl]methyl]-4-piperidinamine] | 
17 | 8.1 | O=C(NC1CCN(Cc2ccccc2)CC1)c1ccc(NCc2ccnc3ccccc23)cc1 [Example 18, N-[1-(Phenylmethyl)-4-piperidinyl]-4-[(4-quinolinylmethyl)amino]benzamide] | 
18 | 32.8 | CCCCN1CCC(NC(=O)c2ccc(NCc3ccnc4ccccc34)cc2)CC1 [Example 19, N-(1-Butyl-4-piperidinyl)-4-[(4-quinolinylmethyl)amino]benzamide] | 

Row | Structure (SMILES) | inhibition at 10 µM [3] [%] | other results
19 | CCCC(=O)N(Cc1ccc(OCc2ccnc3ccccc23)cc1)C1CCN(Cc2ccccc2)CC1 [Example 17, N-[1-(Phenylmethyl)-4-piperidinyl]-N-[[4-(4-quinolinylmethoxy)phenyl]methyl]butanamide] | 25.3 | 
